target: T1, human factor Xa (Homo sapiens, UniProt P00742); assay: Factor Xa assay (chromogenic, purified enzyme); assay type: biochemical; details: inhibition constant for factor Xa; chromogenic substrate S-2765 140 μM, enzyme 0.5 nM, 25° C., pH 7.8; Ki=IC50/{1+(substrate concentration/Km)}; read-out: Ki(FXa)
T1 construct: 25 μl human factor Xa (Enzyme Research Laboratories, Inc; South Bend, Ind.); purchased Enzyme Research Laboratories, Inc; South Bend, Ind
Outline: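 Human factor Xa (0.5 nM) pre-incubated 10 min with compound in TBS-PEG/DMSO, then S-2765 (140 μM) added; initial hydrolysis rate read at 405 nm, 25°C. IC50 by linear regression of relative rate vs log concentration; Ki = IC50/(1+[S]/Km).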

T1 sequence (P00742 235-488 limits assumed): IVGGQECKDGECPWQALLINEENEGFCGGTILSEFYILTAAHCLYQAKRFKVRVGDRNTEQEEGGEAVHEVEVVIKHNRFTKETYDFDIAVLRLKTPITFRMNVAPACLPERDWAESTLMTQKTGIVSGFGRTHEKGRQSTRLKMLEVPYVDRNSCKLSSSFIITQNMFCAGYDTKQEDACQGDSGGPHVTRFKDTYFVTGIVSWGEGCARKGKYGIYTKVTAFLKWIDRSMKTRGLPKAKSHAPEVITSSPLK
T1 sequence (P00742 41-179 partner limits assumed): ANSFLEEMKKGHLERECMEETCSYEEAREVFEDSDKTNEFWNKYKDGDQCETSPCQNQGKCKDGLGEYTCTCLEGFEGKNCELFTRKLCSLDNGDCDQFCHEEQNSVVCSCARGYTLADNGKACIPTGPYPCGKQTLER

Row | Ki | SMILES
1 | 240 nM | CC(C)OC(=O)CNC(=O)c1cc(C(=O)NC2CCN(C(C)C)CC2)n(Cc2cc(-c3ccc(Cl)s3)on2)n1 [Example 90, {[1-[5-(5-Chloro-thiophen-2-yl)-isoxazol-3-ylmethyl]-5-(1-isopropyl-piperidin-4-ylcarbamoyl)-1H-pyrazole-3-carbonyl]-amino}-acetic acid isopropyl ester]
2 | 41 nM | CC(C)OC(=O)CNC(=O)c1cc(C(=O)NC2CCN(C(C)C)CC2)n(CC(=O)Nc2ccc(Cl)cn2)n1 [Example 92, {[1-[(5-Chloro-pyridin-2-ylcarbamoyl)-methyl]-5-(1-isopropyl-piperidin-4-ylcarbamoyl)-1H-pyrazole-3-carbonyl]-amino}-acetic acid isopropyl ester]
3 | 36 nM | CCOC(=O)CNC(=O)c1cc(C(=O)NC2CCN(C(C)C)CC2)n(CC(=O)Nc2ccc(Cl)cn2)n1 [Example 93, {[1-[(5-Chloro-pyridin-2-ylcarbamoyl)-methyl]-5-(1-isopropyl-piperidin-4-ylcarbamoyl)-1H-pyrazole-3-carbonyl]-amino}-acetic acid ethyl ester]
4 | 23 nM | CC(C)N1CCC(NC(=O)c2cc(C(=O)NCC(=O)O)nn2CC(=O)Nc2ccc(Cl)cn2)CC1 [Example 94, {[1-[(5-Chloro-pyridin-2-ylcarbamoyl)-methyl]-5-(1-isopropyl-piperidin-4-ylcarbamoyl)-1H-pyrazole-3-carbonyl]-amino}-acetic acid]
5 | 18 nM | CC(C)N1CCC(NC(=O)c2cc(C(=O)OCC3CC3)nn2CC(=O)Nc2ccc(Cl)cn2)CC1 [Example 96, 1-[(5-Chloro-pyridin-2-ylcarbamoyl)-methyl]-5-(1-isopropyl-piperidin-4-ylcarbamoyl)-1H-pyrazole-3-carboxylic acid cyclopropylmethyl ester]
6 | 228 nM | CCOC(=O)C(NC(=O)c1cc(C(=O)NC2CCN(C(C)C)CC2)n(Cc2cc(-c3ccc(Cl)s3)on2)n1)C(C)C (stereo not shown) [Example 97, 2-{[1-[5-(5-Chloro-thiophen-2-yl)-isoxazol-3-ylmethyl]-5-(1-isopropyl-piperidin-4-ylcarbamoyl)-1H-pyrazole-3-carbonyl]-amino}-3-methyl-butyric acid ethyl ester]
7 | 140 nM | CC(C)C(NC(=O)c1cc(C(=O)NC2CCN(C(C)C)CC2)n(Cc2cc(-c3ccc(Cl)s3)on2)n1)C(=O)O (stereo not shown) [Example 98, 2-{[1-[5-(5-Chloro-thiophen-2-yl)-isoxazol-3-ylmethyl]-5-(1-isopropyl-piperidin-4-ylcarbamoyl)-1H-pyrazole-3-carbonyl]-amino}-3-methyl-butyric acid]
8 | 11 nM | O=C(Nc1ccc(N2CCOCC2=O)cc1)c1cc(-c2ccco2)n(Cc2cc(-c3ccc(Cl)s3)on2)n1 [Example 99, 1-[5-(5-Chloro-thiophen-2-yl)-isoxazol-3-ylmethyl]-5-furan-2-yl-1H-pyrazole-3-carboxylic acid [4-(3-oxo-morpholin-4-yl)-phenyl]-amide]
9 | 25 nM | COCCOCCOc1cc(C(=O)NC2CCN(C(C)C)CC2)n(CC(=O)Nc2ccc(Cl)cn2)n1 [Example 104, 2-[(5-Chloro-pyridin-2-ylcarbamoyl)-methyl]-5-[2-(2-methoxy-ethoxy)-ethoxy]-2H-pyrazole-3-carboxylic acid (1-isopropyl-piperidin-4-yl)-amide]
10 | 21 nM | CC(C)N1CCC(NC(=O)c2cc(OCC(F)(F)F)nn2CC(=O)Nc2ccc(Cl)cn2)CC1 [Example 105, 2-[(5-Chloro-pyridin-2-ylcarbamoyl)-methyl]-5-(2,2,2-trifluoro-ethoxy)-2H-pyrazole-3-carboxylic acid (1-isopropyl-piperidin-4-yl)-amide]
11 | 16 nM | COCCOC(=O)c1cc(C(=O)NC2CCN(C(C)C)CC2)n(CC(=O)Nc2ccc(Cl)cn2)n1 [Example 106, 1-[(5-Chloro-pyridin-2-ylcarbamoyl)-methyl]-5-(1-isopropyl-piperidin-4-ylcarbamoyl)-1H-pyrazole-3-carboxylic acid 2-methoxy-ethyl ester]
12 | 20 nM | CC(C)N1CCC(NC(=O)c2cc(C(=O)OCCO)nn2CC(=O)Nc2ccc(Cl)cn2)CC1 [Example 107, 1-[(5-Chloro-pyridin-2-ylcarbamoyl)-methyl]-5-(1-isopropyl-piperidin-4-ylcarbamoyl)-1H-pyrazole-3-carboxylic acid 2-hydroxy-ethyl ester]
13 | 39 nM | CC(C)N1CCC(NC(=O)c2cc(C(=O)N3CCCOCC3)nn2CC(=O)Nc2ccc(Cl)cn2)CC1 [Example 108, 2-[(5-Chloro-pyridin-2-ylcarbamoyl)-methyl]-5-([1,4]oxazepane-4-carbonyl)-2H-pyrazole-3-carboxylic acid (1-isopropyl-piperidin-4-yl)-amide]
14 | 81 nM | CC(C)N1CCC(NC(=O)c2cc(C(=O)OCCO)nn2Cc2cc(-c3ccc(Cl)s3)on2)CC1 [Example 110, 1-[5-(5-Chloro-thiophen-2-yl)-isoxazol-3-ylmethyl]-5-(1-isopropyl-piperidin-4-ylcarbamoyl)-1H-pyrazole-3-carboxylic acid 2-hydroxy-ethyl ester]
15 | 49 nM | CC(C)N1CCC(NC(=O)c2cc(C(=O)OCC(=O)O)nn2Cc2cc(-c3ccc(Cl)s3)on2)CC1 [Example 111, 1-[5-(5-Chloro-thiophen-2-yl)-isoxazol-3-ylmethyl]-5-(1-isopropyl-piperidin-4-ylcarbamoyl)-1H-pyrazole-3-carboxylic acid carboxymethyl ester]

Row | SMILES | Ki
16 | CC(C)N1CCC(NC(=O)c2cc(C(=O)N3CC(O)C3)nn2CC(=O)Nc2ccc(Cl)cn2)CC1 [Example 95, 2-[(5-Chloro-pyridin-2-ylcarbamoyl)-methyl]-5-(3-hydroxy-azetidine-1-carbonyl)-2H-pyrazole-3-carboxylic acid (1-isopropyl-piperidin-4-yl)-amide] | 39 nM

Reference: patent publication US20080306056A1, “PYRAZOLE-DERIVATIVES AS FACTOR Xa INHIBITORS” (SANOFI-AVENTIS DEUTSCHLAND GMBH, priority 2002, published 2008)
